Test: xn = mol fraction of the nth substance listed

C1CCOC1 + O
Conditions | viscosity [mPa·s]
298 K, 101 kPa, x2 = 0.217 | 0.5842
298 K, 101 kPa, x2 = 0.284 | 0.6433
298 K, 101 kPa, x2 = 0.331 | 0.6715
298 K, 101 kPa, x2 = 0.3845 | 0.7352
298 K, 101 kPa, x2 = 0.4994 | 0.9349
298 K, 101 kPa, x2 = 0.6293 | 1.22
298 K, 101 kPa, x2 = 0.8001 | 1.681
298 K, 101 kPa, x2 = 0.8523 | 1.745
298 K, 101 kPa, x2 = 0.9073 | 1.658
298.15 K, 101 kPa, x1 = 0.02 | 1.157
298.15 K, 101 kPa, x1 = 0.05 | 1.464
298.15 K, 101 kPa, x1 = 0.07 | 1.62
298.15 K, 101 kPa, x1 = 0.1001 | 1.749
298.15 K, 101 kPa, x1 = 0.1199 | 1.79
298.15 K, 101 kPa, x1 = 0.1499 | 1.796
298.15 K, 101 kPa, x1 = 0.1699 | 1.783
298.15 K, 101 kPa, x1 = 0.2 | 1.723
298.15 K, 101 kPa, x1 = 0.2199 | 1.671
298.15 K, 101 kPa, x1 = 0.25 | 1.586
298.15 K, 101 kPa, x1 = 0.2701 | 1.538
298.15 K, 101 kPa, x1 = 0.3002 | 1.445
298.15 K, 101 kPa, x1 = 0.3499 | 1.313
298.15 K, 101 kPa, x1 = 0.3999 | 1.172
298.15 K, 101 kPa, x1 = 0.4499 | 1.039
298.15 K, 101 kPa, x1 = 0.5001 | 0.9437
298.15 K, 101 kPa, x1 = 0.5998 | 0.7744
298.15 K, 101 kPa, x1 = 0.7001 | 0.65
298.15 K, 101 kPa, x1 = 0.8001 | 0.5622
298.15 K, 101 kPa, x1 = 0.9 | 0.4979
298.15 K, 101 kPa, x2 = 0.31 | 0.6564
298.15 K, 101 kPa, x2 = 0.5 | 0.9237
298.15 K, 101 kPa, x2 = 0.63 | 1.224
298.15 K, 101 kPa, x2 = 0.68 | 1.399
298.15 K, 101 kPa, x2 = 0.73 | 1.49
298.15 K, 101 kPa, x2 = 0.77 | 1.582
298.15 K, 101 kPa, x2 = 0.8 | 1.678
298.15 K, 101 kPa, x2 = 0.83 | 1.701
298.15 K, 101 kPa, x2 = 0.86 | 1.732
298.15 K, 101 kPa, x2 = 0.9 | 1.68
298.15 K, 101 kPa, x2 = 0.94 | 1.49
298.15 K, 101 kPa, x2 = 0.97 | 1.202
298.15 K, 101.32 kPa, x1 = 0.0423 | 1.362
298.15 K, 101.32 kPa, x1 = 0.0812 | 1.647
298.15 K, 101.32 kPa, x1 = 0.1809 | 1.741
298.15 K, 101.32 kPa, x1 = 0.3559 | 1.285
298.15 K, 101.32 kPa, x1 = 0.5248 | 0.892
298.15 K, 101.32 kPa, x1 = 0.7342 | 0.638
298.15 K, 101.32 kPa, x1 = 0.8468 | 0.554
298.15 K, 101.32 kPa, x2 = 0.0008 | 0.47
298.15 K, 101.33 kPa, x2 = 0.111 | 0.515
298.15 K, 101.33 kPa, x2 = 0.197 | 0.565
298.15 K, 101.33 kPa, x2 = 0.3027 | 0.65
298.15 K, 101.33 kPa, x2 = 0.4036 | 0.763
298.15 K, 101.33 kPa, x2 = 0.5028 | 0.916
298.15 K, 101.33 kPa, x2 = 0.6047 | 1.129
298.15 K, 101.33 kPa, x2 = 0.7032 | 1.394
298.15 K, 101.33 kPa, x2 = 0.8017 | 1.651
298.15 K, 101.33 kPa, x2 = 0.9013 | 1.665
303.15 K, 101 kPa, x1 = 0.02 | 1.025
303.15 K, 101 kPa, x1 = 0.05 | 1.276
303.15 K, 101 kPa, x1 = 0.07 | 1.398
303.15 K, 101 kPa, x1 = 0.1001 | 1.514
303.15 K, 101 kPa, x1 = 0.1199 | 1.549
303.15 K, 101 kPa, x1 = 0.1499 | 1.558
303.15 K, 101 kPa, x1 = 0.1699 | 1.55
303.15 K, 101 kPa, x1 = 0.2 | 1.504
303.15 K, 101 kPa, x1 = 0.2199 | 1.466
303.15 K, 101 kPa, x1 = 0.25 | 1.395
303.15 K, 101 kPa, x1 = 0.2701 | 1.358
303.15 K, 101 kPa, x1 = 0.3002 | 1.281
303.15 K, 101 kPa, x1 = 0.3499 | 1.174
303.15 K, 101 kPa, x1 = 0.3999 | 1.056
303.15 K, 101 kPa, x1 = 0.4499 | 0.9408
303.15 K, 101 kPa, x1 = 0.5001 | 0.8597
303.15 K, 101 kPa, x1 = 0.5998 | 0.7127
303.15 K, 101 kPa, x1 = 0.7001 | 0.6034
303.15 K, 101 kPa, x1 = 0.8001 | 0.5252
303.15 K, 101 kPa, x1 = 0.9 | 0.4699
303.15 K, 101.33 kPa, x1 = 0.0971 | 1.444
303.15 K, 101.33 kPa, x1 = 0.1497 | 1.523
303.15 K, 101.33 kPa, x1 = 0.2011 | 1.477
303.15 K, 101.33 kPa, x1 = 0.3057 | 1.257
303.15 K, 101.33 kPa, x1 = 0.3979 | 1.04
303.15 K, 101.33 kPa, x1 = 0.4978 | 0.8602
303.15 K, 101.33 kPa, x1 = 0.6026 | 0.7189
303.15 K, 101.33 kPa, x1 = 0.7025 | 0.6137
303.15 K, 101.33 kPa, x1 = 0.8003 | 0.5413
303.15 K, 101.33 kPa, x1 = 0.8978 | 0.4813
308.15 K, 101 kPa, x1 = 0.02 | 0.9079
308.15 K, 101 kPa, x1 = 0.05 | 1.124
308.15 K, 101 kPa, x1 = 0.07 | 1.227
308.15 K, 101.33 kPa, x1 = 0.0971 | 1.256
308.15 K, 101.33 kPa, x1 = 0.1497 | 1.329
308.15 K, 101.33 kPa, x1 = 0.2011 | 1.301
308.15 K, 101.33 kPa, x1 = 0.3057 | 1.12
308.15 K, 101.33 kPa, x1 = 0.3979 | 0.9414
308.15 K, 101.33 kPa, x1 = 0.4978 | 0.7881
308.15 K, 101.33 kPa, x1 = 0.6026 | 0.6666
308.15 K, 101.33 kPa, x1 = 0.7025 | 0.5723
308.15 K, 101.33 kPa, x1 = 0.8003 | 0.5085
308.15 K, 101.33 kPa, x1 = 0.8978 | 0.4554
313.15 K, 101.33 kPa, x1 = 0.1497 | 1.171
313.15 K, 101.33 kPa, x1 = 0.2011 | 1.154
313.15 K, 101.33 kPa, x1 = 0.3057 | 1.01
313.15 K, 101.33 kPa, x1 = 0.3979 | 0.8555
313.15 K, 101.33 kPa, x1 = 0.4978 | 0.724
313.15 K, 101.33 kPa, x1 = 0.6026 | 0.6175
313.15 K, 101.33 kPa, x1 = 0.7025 | 0.5361
313.15 K, 101.33 kPa, x1 = 0.8003 | 0.4788
313.15 K, 101.33 kPa, x1 = 0.8978 | 0.4306
318.15 K, 101.33 kPa, x1 = 0.0971 | 0.9839
318.15 K, 101.33 kPa, x1 = 0.1497 | 1.041
318.15 K, 101.33 kPa, x1 = 0.2011 | 1.037
318.15 K, 101.33 kPa, x1 = 0.3057 | 0.9172
318.15 K, 101.33 kPa, x1 = 0.3979 | 0.7829
318.15 K, 101.33 kPa, x1 = 0.4978 | 0.6687
318.15 K, 101.33 kPa, x1 = 0.6026 | 0.576
318.15 K, 101.33 kPa, x1 = 0.7025 | 0.5036
318.15 K, 101.33 kPa, x1 = 0.8003 | 0.452
318.15 K, 101.33 kPa, x1 = 0.8978 | 0.4089
323.15 K, 101.33 kPa, x1 = 0.0971 | 0.8801
323.15 K, 101.33 kPa, x1 = 0.1497 | 0.9355
323.15 K, 101.33 kPa, x1 = 0.2011 | 0.9367
323.15 K, 101.33 kPa, x1 = 0.3057 | 0.8382
323.15 K, 101.33 kPa, x1 = 0.3979 | 0.7216
323.15 K, 101.33 kPa, x1 = 0.4978 | 0.621
323.15 K, 101.33 kPa, x1 = 0.6026 | 0.5365
323.15 K, 101.33 kPa, x1 = 0.7025 | 0.4716
323.15 K, 101.33 kPa, x1 = 0.8003 | 0.4277
323.15 K, 101.33 kPa, x1 = 0.8978 | 0.3879

Reference: the CheMixHub viscosity set
